In ChEMBL document CHEMBL5465560, “Selectivity Literature for EUbOPEN Chemogenomic Library” (2024) one finds % of engagement, % of control and % of inhibition data, which are given here for seven compounds.

In test [1] the target is Phosphatidylinositol 4,5-bisphosphate 3-kinase catalytic subunit beta isoform (Homo sapiens) (UniProt P42338). The experiment in a line: Selectivity interaction (Kinase panel (KiNativ target engagement assay in Jurkat cells)) EUB0001635a PIK3CB. The class given is cell-based. The note with it: Selectivity number of off-targets 0.0, Selectivity number of targets 233.0, Source Knowledge https://www.sciencedirect.com/science/article/pii/S2451945619300674?via%3Dihub, at 1 µM.

In test [2] the target is Calcium/calmodulin-dependent protein kinase type II subunit alpha (Homo sapiens, UniProt Q9UQM7). The test is described as follows: Selectivity interaction (Kinase panel (KiNativ target engagement assay in Jurkat cells)) EUB0001635a CAMK2A. The class given is cell-based. To be noted: Selectivity number of off-targets 0.0, Selectivity number of targets 233.0, Source Knowledge https://www.sciencedirect.com/science/article/pii/S2451945619300674?via%3Dihub, at 1 µM.

For test [3], the target named is Phosphatidylinositol 4-phosphate 3-kinase C2 domain-containing subunit beta (Homo sapiens) (UniProt O00750). The test is described as follows: Selectivity interaction (Ambit KINOMEscan and KiNATiv profiling in Jurkat cells) EUB0000090b PIK3C2B. The class given is cell-based. To be noted: at 1 µM.
Test [4] concerns the target T1, Serine/threonine-protein kinase DCLK1 (Homo sapiens) (UniProt O15075).
T1 sequence (whole entry): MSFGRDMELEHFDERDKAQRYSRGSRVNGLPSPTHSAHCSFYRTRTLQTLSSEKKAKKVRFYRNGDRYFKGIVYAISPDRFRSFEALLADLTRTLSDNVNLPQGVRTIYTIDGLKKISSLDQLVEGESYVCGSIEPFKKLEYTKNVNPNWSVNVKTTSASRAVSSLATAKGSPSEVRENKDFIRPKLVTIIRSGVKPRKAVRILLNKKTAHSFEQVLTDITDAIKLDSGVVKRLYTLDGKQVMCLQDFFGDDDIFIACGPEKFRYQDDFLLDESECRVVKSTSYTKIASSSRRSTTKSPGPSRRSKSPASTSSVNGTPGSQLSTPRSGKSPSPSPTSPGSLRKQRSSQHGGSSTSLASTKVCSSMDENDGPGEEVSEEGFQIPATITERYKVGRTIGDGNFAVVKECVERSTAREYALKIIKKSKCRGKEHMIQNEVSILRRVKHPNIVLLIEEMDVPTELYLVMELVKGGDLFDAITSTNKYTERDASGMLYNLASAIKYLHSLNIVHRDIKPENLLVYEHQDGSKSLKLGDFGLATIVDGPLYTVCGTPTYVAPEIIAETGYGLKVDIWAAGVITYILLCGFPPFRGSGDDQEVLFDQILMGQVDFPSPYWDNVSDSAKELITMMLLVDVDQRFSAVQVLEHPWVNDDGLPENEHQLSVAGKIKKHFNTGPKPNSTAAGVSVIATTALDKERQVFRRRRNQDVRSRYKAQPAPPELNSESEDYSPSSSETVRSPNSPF
The experiment in a line: Selectivity interaction (KinomeScan (DiscoverX)) EUB0000607a DCLK1. To be noted: at 10 µM.

Test [5] has as its target AP2-associated protein kinase 1 (Homo sapiens, UniProt Q2M2I8). The experiment in a line: Selectivity interaction (KinomeScan (DiscoverX)) EUB0000655a AAK1. To be noted: at 10 µM.
The target of test [6] is Fibroblast growth factor receptor 1 (Homo sapiens, UniProt P11362). The experiment in a line: Selectivity interaction (Kinase panel (literature)) EUB0001199aCl FGFR1. The note with it: at 1 µM.
In test [7] the target is [Pyruvate dehydrogenase (acetyl-transferring)] kinase isozyme 1, mitochondrial (Homo sapiens, UniProt Q15118). The test is described as follows: Selectivity interaction (ActivX KiNativ screen (kinase selectivity in THP-1 cell lysates)) EUB0000639a PDK1. To be noted: lysate. The class given is subcellular.
The target in test [8] is T2, Rhodopsin kinase GRK7 (Homo sapiens) (UniProt Q8WTQ7).
T2 sequence (whole entry): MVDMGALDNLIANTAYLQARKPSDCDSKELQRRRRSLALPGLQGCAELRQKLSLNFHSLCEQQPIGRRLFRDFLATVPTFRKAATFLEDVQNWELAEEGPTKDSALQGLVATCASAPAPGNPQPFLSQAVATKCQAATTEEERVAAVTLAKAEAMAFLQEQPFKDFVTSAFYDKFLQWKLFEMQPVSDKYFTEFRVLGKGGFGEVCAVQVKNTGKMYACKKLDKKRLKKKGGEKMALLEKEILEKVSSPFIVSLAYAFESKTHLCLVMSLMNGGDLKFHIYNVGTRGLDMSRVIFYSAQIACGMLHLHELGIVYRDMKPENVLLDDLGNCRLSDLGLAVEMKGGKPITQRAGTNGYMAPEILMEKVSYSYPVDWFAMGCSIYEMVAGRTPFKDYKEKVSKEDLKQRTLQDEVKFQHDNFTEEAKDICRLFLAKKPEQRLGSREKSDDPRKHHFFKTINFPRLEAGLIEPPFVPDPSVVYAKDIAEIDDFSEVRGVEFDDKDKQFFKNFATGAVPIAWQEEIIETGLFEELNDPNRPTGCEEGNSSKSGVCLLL
The experiment in a line: Selectivity interaction (Kinase panel (Invitrogen)) EUB0000639a GRK7. To be noted: at 200 nM.

Test [9] addresses T3, SNF-related serine/threonine-protein kinase (Homo sapiens) (UniProt Q9NRH2).
T3 sequence (whole entry): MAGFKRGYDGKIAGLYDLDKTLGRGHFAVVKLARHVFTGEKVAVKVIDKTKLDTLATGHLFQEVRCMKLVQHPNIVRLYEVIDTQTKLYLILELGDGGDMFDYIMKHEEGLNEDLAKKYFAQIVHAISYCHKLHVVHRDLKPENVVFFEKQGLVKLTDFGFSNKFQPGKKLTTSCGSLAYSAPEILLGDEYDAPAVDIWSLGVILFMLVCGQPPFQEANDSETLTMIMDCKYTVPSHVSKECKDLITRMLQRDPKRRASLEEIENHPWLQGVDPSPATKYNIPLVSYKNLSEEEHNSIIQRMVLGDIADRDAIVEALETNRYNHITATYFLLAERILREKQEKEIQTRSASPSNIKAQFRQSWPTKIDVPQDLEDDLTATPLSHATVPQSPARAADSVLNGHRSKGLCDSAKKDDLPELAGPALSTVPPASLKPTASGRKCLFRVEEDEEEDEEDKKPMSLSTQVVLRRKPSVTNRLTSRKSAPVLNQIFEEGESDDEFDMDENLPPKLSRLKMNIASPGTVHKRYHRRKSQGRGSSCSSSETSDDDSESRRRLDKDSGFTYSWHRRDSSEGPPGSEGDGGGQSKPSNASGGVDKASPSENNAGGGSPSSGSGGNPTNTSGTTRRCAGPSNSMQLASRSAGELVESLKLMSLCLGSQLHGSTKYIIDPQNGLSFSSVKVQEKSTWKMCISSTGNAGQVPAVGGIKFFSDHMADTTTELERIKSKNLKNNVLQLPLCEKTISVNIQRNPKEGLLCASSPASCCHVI
The test is described as follows: Selectivity interaction (ActivX KiNativ screen (kinase selectivity in THP-1 cell lysates)) EUB0000639a SNRK. The class given is subcellular. To be noted: lysate, at 0.2 µM.

Test [10] concerns the target Serine/threonine-protein kinase PAK 6 (Homo sapiens) (UniProt Q9NQU5). The test is described as follows: Selectivity interaction (KinomeScan (DiscoverX)) EUB0000695a PAK6. The note with it: at 100 nM.

AP2-associated protein kinase 1, sequence (Q2M2I8 whole entry, looked up): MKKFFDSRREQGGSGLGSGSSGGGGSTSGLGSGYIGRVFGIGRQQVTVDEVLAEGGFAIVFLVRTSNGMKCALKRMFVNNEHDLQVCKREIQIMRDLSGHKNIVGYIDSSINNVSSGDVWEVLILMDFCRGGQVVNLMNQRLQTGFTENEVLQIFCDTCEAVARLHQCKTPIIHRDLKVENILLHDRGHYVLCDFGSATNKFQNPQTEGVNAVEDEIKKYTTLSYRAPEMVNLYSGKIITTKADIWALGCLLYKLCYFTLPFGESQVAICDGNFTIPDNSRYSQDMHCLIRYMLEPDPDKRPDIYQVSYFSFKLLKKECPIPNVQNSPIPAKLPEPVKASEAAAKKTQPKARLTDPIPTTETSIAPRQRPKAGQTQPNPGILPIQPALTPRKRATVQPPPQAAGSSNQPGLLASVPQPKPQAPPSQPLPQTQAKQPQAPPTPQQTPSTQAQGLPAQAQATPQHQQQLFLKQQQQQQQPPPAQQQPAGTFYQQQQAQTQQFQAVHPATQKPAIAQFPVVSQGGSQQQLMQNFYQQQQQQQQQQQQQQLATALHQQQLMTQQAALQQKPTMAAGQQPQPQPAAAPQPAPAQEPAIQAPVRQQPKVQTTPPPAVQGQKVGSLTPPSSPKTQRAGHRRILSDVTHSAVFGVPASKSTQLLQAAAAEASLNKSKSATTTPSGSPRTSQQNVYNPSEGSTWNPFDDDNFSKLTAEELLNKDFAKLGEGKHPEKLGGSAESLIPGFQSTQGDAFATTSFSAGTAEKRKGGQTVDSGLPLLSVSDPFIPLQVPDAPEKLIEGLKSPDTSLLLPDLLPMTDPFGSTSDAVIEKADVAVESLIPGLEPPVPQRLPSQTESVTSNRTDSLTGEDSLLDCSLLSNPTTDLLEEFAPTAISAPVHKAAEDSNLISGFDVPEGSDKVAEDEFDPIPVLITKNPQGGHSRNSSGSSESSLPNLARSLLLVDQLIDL
Phosphatidylinositol 4-phosphate 3-kinase C2 domain-containing subunit beta (Homo sapiens), sequence (O00750 whole entry, the tested form may be a part): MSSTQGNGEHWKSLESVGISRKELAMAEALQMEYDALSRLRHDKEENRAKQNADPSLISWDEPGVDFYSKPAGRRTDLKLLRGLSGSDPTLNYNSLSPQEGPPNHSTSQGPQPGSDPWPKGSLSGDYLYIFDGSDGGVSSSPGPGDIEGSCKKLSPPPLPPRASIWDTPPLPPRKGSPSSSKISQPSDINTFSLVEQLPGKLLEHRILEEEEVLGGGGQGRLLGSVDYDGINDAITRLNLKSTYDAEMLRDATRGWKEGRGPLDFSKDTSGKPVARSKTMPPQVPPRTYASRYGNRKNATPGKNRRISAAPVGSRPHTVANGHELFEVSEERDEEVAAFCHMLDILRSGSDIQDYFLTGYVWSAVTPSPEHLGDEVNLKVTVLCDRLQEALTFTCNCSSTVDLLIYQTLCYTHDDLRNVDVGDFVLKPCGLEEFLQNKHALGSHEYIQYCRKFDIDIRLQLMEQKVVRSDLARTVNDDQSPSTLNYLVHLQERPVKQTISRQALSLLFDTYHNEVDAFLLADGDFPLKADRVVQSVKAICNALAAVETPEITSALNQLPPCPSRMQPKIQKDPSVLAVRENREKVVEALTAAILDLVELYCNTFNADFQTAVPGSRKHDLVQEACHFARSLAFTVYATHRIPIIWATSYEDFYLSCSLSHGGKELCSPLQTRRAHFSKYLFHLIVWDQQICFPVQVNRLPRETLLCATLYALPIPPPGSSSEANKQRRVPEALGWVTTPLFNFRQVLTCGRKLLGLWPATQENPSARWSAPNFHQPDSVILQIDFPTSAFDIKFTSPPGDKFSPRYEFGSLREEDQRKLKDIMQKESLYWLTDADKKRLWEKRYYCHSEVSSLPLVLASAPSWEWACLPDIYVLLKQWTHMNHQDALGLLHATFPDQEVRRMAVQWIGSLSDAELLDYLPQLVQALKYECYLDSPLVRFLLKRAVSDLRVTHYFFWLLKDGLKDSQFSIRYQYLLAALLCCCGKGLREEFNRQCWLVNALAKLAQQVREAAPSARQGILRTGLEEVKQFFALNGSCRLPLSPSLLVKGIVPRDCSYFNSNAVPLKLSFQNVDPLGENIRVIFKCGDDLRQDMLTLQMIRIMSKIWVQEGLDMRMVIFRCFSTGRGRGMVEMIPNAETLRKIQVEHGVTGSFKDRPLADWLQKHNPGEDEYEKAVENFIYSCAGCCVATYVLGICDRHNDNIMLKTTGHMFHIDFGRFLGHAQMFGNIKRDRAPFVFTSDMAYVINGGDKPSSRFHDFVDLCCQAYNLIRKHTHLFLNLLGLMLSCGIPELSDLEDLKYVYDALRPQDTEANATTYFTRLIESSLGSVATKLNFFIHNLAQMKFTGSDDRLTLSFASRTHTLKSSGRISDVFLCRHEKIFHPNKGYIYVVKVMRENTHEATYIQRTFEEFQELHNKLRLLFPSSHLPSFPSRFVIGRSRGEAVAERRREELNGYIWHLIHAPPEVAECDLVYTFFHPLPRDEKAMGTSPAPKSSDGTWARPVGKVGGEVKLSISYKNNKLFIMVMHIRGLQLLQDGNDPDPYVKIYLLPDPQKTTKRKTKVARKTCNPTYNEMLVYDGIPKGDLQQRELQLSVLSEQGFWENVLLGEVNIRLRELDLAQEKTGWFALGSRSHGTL
Fibroblast growth factor receptor 1, sequence (P11362 22-822 limits assumed): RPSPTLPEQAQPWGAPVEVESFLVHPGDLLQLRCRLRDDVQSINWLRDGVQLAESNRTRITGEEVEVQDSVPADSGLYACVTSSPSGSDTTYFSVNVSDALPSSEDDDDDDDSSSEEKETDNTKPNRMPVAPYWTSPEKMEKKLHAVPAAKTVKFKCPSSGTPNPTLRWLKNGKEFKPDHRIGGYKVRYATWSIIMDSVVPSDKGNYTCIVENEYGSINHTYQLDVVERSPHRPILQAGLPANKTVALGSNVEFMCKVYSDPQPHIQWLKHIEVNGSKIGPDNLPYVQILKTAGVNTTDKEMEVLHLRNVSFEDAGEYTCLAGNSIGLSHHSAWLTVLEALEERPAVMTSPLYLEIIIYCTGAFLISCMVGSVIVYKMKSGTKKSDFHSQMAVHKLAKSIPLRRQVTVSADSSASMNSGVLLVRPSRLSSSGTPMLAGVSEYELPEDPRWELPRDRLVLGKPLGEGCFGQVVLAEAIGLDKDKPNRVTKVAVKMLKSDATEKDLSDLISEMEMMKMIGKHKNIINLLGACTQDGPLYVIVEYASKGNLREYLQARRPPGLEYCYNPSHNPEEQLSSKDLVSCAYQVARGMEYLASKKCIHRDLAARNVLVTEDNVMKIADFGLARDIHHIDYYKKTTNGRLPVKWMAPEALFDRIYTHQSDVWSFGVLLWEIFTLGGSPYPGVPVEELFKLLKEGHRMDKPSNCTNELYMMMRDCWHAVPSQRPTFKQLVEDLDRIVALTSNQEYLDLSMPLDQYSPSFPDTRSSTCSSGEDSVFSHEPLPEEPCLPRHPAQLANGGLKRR
Phosphatidylinositol 4,5-bisphosphate 3-kinase catalytic subunit beta isoform (Homo sapiens), sequence (P42338 whole entry, looked up, canonical isoform): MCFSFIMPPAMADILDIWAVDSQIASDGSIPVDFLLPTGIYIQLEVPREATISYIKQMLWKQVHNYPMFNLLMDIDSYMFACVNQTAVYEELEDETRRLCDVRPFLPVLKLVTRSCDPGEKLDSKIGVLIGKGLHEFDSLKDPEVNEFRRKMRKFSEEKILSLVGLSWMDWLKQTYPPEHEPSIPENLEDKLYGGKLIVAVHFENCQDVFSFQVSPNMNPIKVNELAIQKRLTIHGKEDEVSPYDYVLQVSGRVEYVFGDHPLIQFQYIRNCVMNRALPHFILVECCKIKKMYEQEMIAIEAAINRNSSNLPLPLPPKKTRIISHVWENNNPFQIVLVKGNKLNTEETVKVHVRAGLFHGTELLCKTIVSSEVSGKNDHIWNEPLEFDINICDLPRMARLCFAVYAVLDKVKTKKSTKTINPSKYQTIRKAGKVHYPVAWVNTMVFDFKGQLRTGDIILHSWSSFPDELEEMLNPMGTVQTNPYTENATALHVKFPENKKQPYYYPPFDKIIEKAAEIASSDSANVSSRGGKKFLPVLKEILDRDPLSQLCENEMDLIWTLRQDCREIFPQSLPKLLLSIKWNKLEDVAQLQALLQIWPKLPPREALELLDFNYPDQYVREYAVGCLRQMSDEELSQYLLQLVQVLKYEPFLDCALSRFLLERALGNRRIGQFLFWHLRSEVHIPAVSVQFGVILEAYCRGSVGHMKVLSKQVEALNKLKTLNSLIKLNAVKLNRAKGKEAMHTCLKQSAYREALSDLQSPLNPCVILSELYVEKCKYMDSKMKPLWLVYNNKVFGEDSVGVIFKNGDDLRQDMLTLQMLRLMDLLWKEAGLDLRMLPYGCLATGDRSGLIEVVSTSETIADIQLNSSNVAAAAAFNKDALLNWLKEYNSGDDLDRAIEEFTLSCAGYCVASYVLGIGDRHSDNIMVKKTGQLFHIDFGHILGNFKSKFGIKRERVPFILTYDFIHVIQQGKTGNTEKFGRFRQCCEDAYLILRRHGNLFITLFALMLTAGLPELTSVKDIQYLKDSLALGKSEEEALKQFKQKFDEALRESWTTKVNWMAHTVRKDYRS
Calcium/calmodulin-dependent protein kinase type II subunit alpha, sequence (Q9UQM7 whole entry): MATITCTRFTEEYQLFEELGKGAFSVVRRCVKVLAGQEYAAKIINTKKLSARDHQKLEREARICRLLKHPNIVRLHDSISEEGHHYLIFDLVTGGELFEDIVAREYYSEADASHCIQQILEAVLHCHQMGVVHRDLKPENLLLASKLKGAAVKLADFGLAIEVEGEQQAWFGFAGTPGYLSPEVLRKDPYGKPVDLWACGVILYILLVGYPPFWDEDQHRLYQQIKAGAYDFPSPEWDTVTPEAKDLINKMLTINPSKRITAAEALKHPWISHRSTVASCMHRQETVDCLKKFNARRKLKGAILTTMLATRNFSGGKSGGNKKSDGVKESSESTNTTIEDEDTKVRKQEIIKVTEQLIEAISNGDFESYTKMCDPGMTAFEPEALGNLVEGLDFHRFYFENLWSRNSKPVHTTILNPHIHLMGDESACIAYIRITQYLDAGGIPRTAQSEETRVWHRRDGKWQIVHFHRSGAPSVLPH

Regarding `C=CC(=O)Nc1ccc(C(=O)Nc2[nH]nc3c2CN(C(=O)N[C@H](CN(C)C)c2ccccc2)C3(C)C)cc1`, the % of engagement in test [1] was -21.2%; in test [2], 24.5%.

Consider `CN(C)C/C=C/C(=O)Nc1ccc(C(=O)N2CCCC(Nc3ncc(Cl)c(-c4c[nH]c5ccccc45)n3)C2)cc1` (centres undefined), for which the % of control in [3] was determined as 94%.

For `CNC(=O)Nc1ccc(-c2nc(N3CC4CCC(C3)O4)c3cnn(C4CCC5(CC4)OCCO5)c3n2)cc1`, the % of control in test [4] was determined as 100%.

The compound `CN(C)CCOc1ccc(-c2nc(-c3ccncc3)c(-c3ccc4c(c3)CC/C4=N\O)[nH]2)cc1` showed a % of control in [5] of 76%.

With `CN1Cc2nccc(-c3cn(C)nc3-c3ccc(F)cc3)c2C1=O`, the % of inhibition in test [6] came to 3%.

Take `CC[C@@H]1[C@H](F)C(=O)N[C@@H]1COc1nccc2cc(C(N)=O)c(OC)cc12` [ZIMLOVISERTIB]: the % of inhibition was 1.3% in test [7] (at 0.01 µM); 12.1% in test [7] (at 0.04 µM); 12.1% in test [7] (at 0.2 µM); 12.5% in [7] (at 1 µM); 28.1% in test [7] (at 5 µM); 1.87% in [8]. The same compound displayed a % of inhibition in test [9] of 8.5%.

With `Cc1cc(F)c(C(=O)Nc2cccc(-c3nncn3C(C)C)n2)cc1-n1cnc(C2CC2)c1`, the % of control in test [10] came to 97%.
